In patent US12186330B2, “Compositions for improving cell viability and methods of use thereof” (Amylyx Pharmaceuticals Inc., priority 2013, dated 2025):
“And” between values parts separate entries of the source, which are not always exact repeats. Equal values may be shown once.

Assays:
[1] = system: rat cortical neuron culture; test: Cell viability by PrestoBlue after hydrogen peroxide exposure, peroxide exposure neuronal cell model; assay type: cell-based; conditions: for protection of cell viability against peroxide exposure (FIG. 1, significance): PrestoBlue, H2O2 exposure, rat cortical neuron culture
Description: (§1) Cortical mixed cultures were prepared from E18 Wistar rat embryos (Laboratory Animal Center, Kuopio, Finland). The cortices were dissected out and the tissue was cut to small pieces. The cells were separated by 15-min incubation with DNase and papain. The cells were collected by centrifugation (1500 rpm, 5 min). The tissue was triturated with a pipette and the cells were plated (3×10^5 cells/cm^2) on poly-L-lysine coated 48 wells in MEM supplemented with 2 g/l glucose, 2 mM glutamine, 0.1 μg/ml gentamicin, and 10% heat-inactivated horse serum (HS-HI) and […] bovine serum (FBS-HI). After three days in vitro, medium containing MEM with supplements and 5% both sera was changed to the cells. On day 6 in vitro, the unwanted cell division was inhibited by adding cytosine arabinoside (10 μM final concentration) for 24 h. The cultures were refed with MEM with supplements and 5% HS-HI before experiments.
(§2) The wells in good shape were chosen for experiment on day 10 in vitro. Test compounds were diluted in MEM with supplements and 5% HS-HI. 24 h later, 300 μM NMDA for 24 h was used as a control for total neuronal death, and H2O2 for 1 h was used to induce approximately 30-60% cell death. DFX (100 μM) was used as a potential positive control for inhibition of H2O2-induced cell death. Wells treated with medium only served as 0-control. Test compounds were pipetted to the cells 24 h before adding H2O2. After 60 min, the medium was removed and media containing the compounds was pipetted to the wells for 24 h.
After the cell culture medium was collected for LDH measurement, 100 μl PrestoBlue solution (1:10 dilution of PrestoBlue reagent (Invitrogen, # A13261, lot 915815C) in culture medium) was added to the wells for 1 h incubation at +37° C. CO2 incubator. Fluorescence at 560 nm excitation/615 nm emission was measured using Victor fluororeader (PerkinElmer).
(§3) The number of wells per compound concentration used was 6 (n=6). One (1) concentration of 100 μM TUDCA and 1 mM 4-PBA separately and together were studied. Statistical analysis were calculated on Microsoft excel. The values were analyzed two-tailed, equal variance t-tests comparing all conditions to all other conditions.

[2] = system: rat cortical neuron culture; test: Cell death by LDH release after hydrogen peroxide exposure, peroxide exposure neuronal cell model; assay type: cell-based; conditions: for Cell Death Evaluated By LDH Following H2O2 Exposure, Average (%): compounds added 24 h before and for 24 h after, TUDCA 100 uM, 4-PBA 1 mM, DFX 100 uM, n=6, No Treatment = 0%; for protection against cell death after peroxide exposure (FIG. 2, significance): LDH, H2O2 exposure, rat cortical neuron culture
Description: as §1, §2
After 24 h the culture media of all wells was collected and possible cell debris was removed by centrifugation (13 000 rpm, 3 min). A-100-μl aliquot was pipetted into a micro titer plate as duplicates, and equal amount of LDH reagent was pipetted to the wells. The absorbance at 340 nm was measured immediately using a 3-min kinetic measurement protocol in Multiskan Ascent ELISA reader (Thermo, Finland). The change in absorbance/min was determined, which is directly proportional to the released LDH (=cell death).
as §3

[3] = H2O2 40 uM for 1 h, compounds added 24 h before and for 24 h after, TUDCA 100 uM, 4-PBA 1 mM, DFX 100 uM, n=6, No Treatment = 100%
[4] = Rattus norvegicus, Cortical neurone, H2O2 40 uM for 1 h, compounds added 24 h before and for 24 h after, TUDCA 100 uM, 4-PBA 1 mM, DFX 100 uM, n=6, No Treatment = 100%, read-out: Cell Viability Evaluated By PrestoBlue Following H2O2 Exposure, Average (%)

Structure (SMILES)	viability at 40 µM ([1]; Rattus norvegicus, Cortical neurone, 1 h, H2O2 40 uM for 1 h, no test compound (the text's 'control'), read-out: Cell Viability Evaluated By PrestoBlue, Average (%), H2O2 exposure alone)	Cell Death Evaluated By LDH, Average (%), H2O2 exposure alone ([2]; H2O2 40 uM for 1 h, no test compound (the text's 'control'))	Cell Viability Evaluated By PrestoBlue Following H2O2 Exposure, Average (%) [1, 3]	protection of cell viability against peroxide exposure (FIG. 1, significance) [1]	viability at 1000 µM [1, 4]	Cell Death Evaluated By LDH Following H2O2 Exposure, Average (%) ([2]; H2O2 40 uM for 1 h)	protection against cell death after peroxide exposure (FIG. 2, significance) [2]	viability at 100 µM [1, 4]	Cell Death Evaluated By LDH, Average (%), NMDA negative control ([2]; NMDA 300 uM for 24 h, control for total neuronal death)
OO [H2O2, hydrogen peroxide]	48.6%	62.48%							
O=C(O)CCCc1ccccc1 [4-PBA, 4-phenylbutyric acid]			72.20%	does not provide significant protection	72%	46.5% and 46.47%	does not provide significant protection		
C[C@H](CCC(=O)NCCS(=O)(=O)O)[C@H]1CC[C@H]2[C@@H]3[C@@H](O)C[C@@H]4C[C@H](O)CC[C@]4(C)[C@H]3CC[C@]12C [TUDCA, tauroursodeoxycholic acid]			58.59%	does not provide significant protection		60.4% and 60.37%	does not provide significant protection	59%	
CN[C@H](CC(=O)O)C(=O)O [NMDA]									100%
